Source: US11007269B2, “P53 degradation inducing molecule and pharmaceutical composition” (Tokyo University of Science Foundation, priority 2016, dated 2021)
Non-standard residues stand in square brackets, D forms with d. Residues, ends and D or L forms follow the SMILES beside them. Nle = CCCC[C@H](N)C(=O)O

Assays:
[1] = biological target: T1, catalytic subunit β5 of the proteasome (chymotrypsin-like activity) (Homo sapiens, UniProt P28074); assay: 20S Proteasome StressXpress Assay Kit, AMC substrate, β5; assay type: biochemical
T1 construct: purchased Bioscience
Protocol: (§1) In Reference Example 2, the proteasome inhibitory activity of TMP-CANDDY_DMT and the affinity of TMP-CANDDY_DMT with a proteasome were evaluated. As a positive control, MG-132 as a proteasome inhibitor was used.
(§2) For evaluation, 20S Proteasome StressXpress™ Assay Kit Gold (Bioscience) was used. AMC was measured by using Multi-Detection Microplate Reader (Synergy HT, BIO-TEK). The AMC was produced by cleaving the C-terminus of an AMC-binding proteasome fluorescence substrate specific to β subunits of a 20S proteasome, including β5 (chymotrypsin-like activity), β2 (trypsin-like activity), and β1 (caspase-like activity). The measuring wavelengths were 360 nm for excitation light (Ex.), and 460 nm for fluorescence (Em.).
(§3) In Reference Example 6, as in Reference Example 2, a proteasome inhibitory activity of TMP-CANDDY_ALLN and an affinity of TMP-CANDDY_ALLN with a proteasome were evaluated.

20S proteasome = biological target: T2, 20S proteasome (Homo sapiens, UniProt P28072+P28074+Q99436); assay: Affinity with a proteasome, evaluated from the 20S proteasome activity assay; assay type: biochemical; conditions: concluded from the concentration dependent inhibitory activity
T2 construct: purchased Bioscience
Protocol: as §1, §2, §3

[2] = biological target: T3, catalytic subunit β2 of the proteasome (trypsin-like activity) (Homo sapiens, UniProt Q99436); assay: 20S Proteasome StressXpress Assay Kit, AMC substrate, β2; assay type: biochemical
T3 construct: purchased Bioscience
Protocol: as §1, §2, §3

[3] = test system: ecDHFR protein (fusion protein of an ecDHFR protein and GFP through a HA tag); assay type: cell-based, human; conditions: HeLa cells, 24 hours after addition, vs DMSO control
[4] = biological target: T4, catalytic subunit β1 of a proteasome (caspase-like activity) (Homo sapiens, UniProt P28072); assay: 20S Proteasome StressXpress Assay Kit, AMC substrate, β1; assay type: biochemical
T4 construct: purchased Bioscience
Protocol: as §1, §2, §3

[5] = test system: ecDHFR protein (fusion protein of an ecDHFR protein and GFP through a HA tag); assay: Western blot of degradation of forcibly expressed ecDHFR protein in HeLa cells; assay type: cell-based, human
[6] = biological target: T4, catalytic subunit β1 of a proteasome (caspase-like activity); conditions: reported by Kaiser et al., Chem. Bio. Chem., 2004; cited from earlier work
[7] = test system: senescence-associated acidic β-galactosidase (SA-β-gal) inducing TIG3 cells; assay: FACS analysis of SA-β-gal in doxorubicin senescence-induced TIG3 cells (anti-aging action); assay type: cell-based, human; conditions: doxorubicin 150 nM alone vs no doxorubicin
Protocol: In Example 5, an anti-aging action in a senescence-associated acidic β-galactosidase (SA-β-gal) inducing TIG3 cells (human embryonic fibroblast) in which TIBC-CANDDY_MLN had been added was evaluated by FACS analysis.
TIG3 cells as normal cells were seeded in a 24-well plate at a cell density of 8×10^4 cells/well, and then cultured under conditions of 37° C. and 5 vol % CO2 for 16 hours.
After 16 hours from cell seeding, doxorubicin was added to each well at 150 nM/well to induce cellular senescence. As a medium, a serum-free medium (37° C.) in which 1 mass % L-glutamine solution (Sigma-Aldrich) was added to D-MEM (high D-glucose, phenol red, sodium pyruvate (Wako Pure Chemical Industries, Ltd.)) was used. It is noted that the L-glutamine solution was added immediately before use. After the addition of doxorubicin, culture was performed under conditions of 37° C. and 5 vol % CO2 for 24 hours.
After 24 hours from induction of senescence, TIBC-CANDDY_MLN was added to TIG3 cells as follows. As a medium, a serum-free medium (37° C.) in which 1 mass % L-glutamine solution (Sigma-Aldrich) was added to D-MEM (high D-glucose, phenol red, sodium pyruvate (Wako Pure Chemical Industries, Ltd.)) was used. It is noted that the L-glutamine solution was added immediately before use. A DMSO solution containing TIBC-CANDDY_MLN was mixed with the medium so that the concentration of DMSO was 1 vol %, and added to each well at 500 μL/well, and cultured under conditions of 37° C. and 5 vol % CO2 for 48 hours. As a control, DMSO was used.
For quantification of SA-β-gal as a senescence marker, a commercially available kit (Cellular Senescence Detection Kit-SPiDER-βGal (DOJINDO LABORATORIES)) was used. […]
A BD FACSCanto™ II (BD Biosciences) was used for flow cytometry to detect SA-β-gal labeled with FITC. […] A histogram of the FITC strength was created by an analysis software FlowJo™ (TOMY Digital Biology Co., Ltd.), and the senescence suppressing action by TIBC-CANDDY_MLN was evaluated from a shift in the histogram.

Q: Which “concentration dependence of inhibitory activity against β5” value [1] does the source give for `CCCC[C@H](NC(=O)[C@H](CC(C)C)NC(=O)[C@H](CC(C)C)NC(C)=O)C(=O)NCCCCCCNC(=O)COc1c(OC)cc(Cc2cnc(N)nc2N)cc1OC` [TMP-CANDDY_ALLN] here?
A: in a concentration dependent manner

Q: And the “proteasome inhibitory activity against β5 compared with the reference proteasome inhibitor” value [1]?
A: the inhibitory activity was weakened

Q: And the “affinity with a proteasome” value (20S proteasome)?
A: had an affinity with a proteasome

Q: And the “concentration dependence of inhibitory activity against β2” value [2]?
A: in a concentration dependent manner

Q: And the “proteasome inhibitory activity against β2 compared with the reference proteasome inhibitor” value [2]?
A: the inhibitory activity was weakened

Q: And the “degradation (knockdown) of the ecDHFR protein (shift of GFP/DsRed graph, FACS)” value [3]?
A: degradation of the ecDHFR protein was induced

Q: And the “concentration dependence of inhibitory activity against β1” value [4]?
A: in a concentration dependent manner

Q: Which “concentration dependence of inhibitory activity against β5” value [1] does the source give for `COc1nc(NCCCCCCNC(=O)COc2c(OC)cc(Cc3cnc(N)nc3N)cc2OC)nc(OC)n1` [TMP-CANDDY_DMT] here?
A: increased in a concentration dependent manner

Q: What about the “proteasome inhibitory activity against β5 compared with the reference proteasome inhibitor” value [1] of the same molecule?
A: significantly lower proteasome inhibitory activity as compared with MG-132

Q: What about the “affinity with a proteasome” value (20S proteasome) of the same molecule?
A: moderate affinity

Q: And the “concentration dependence of inhibitory activity against β2” value [2]?
A: increased in a concentration dependent manner

Q: And the “proteasome inhibitory activity against β2 compared with the reference proteasome inhibitor” value [2]?
A: significantly lower proteasome inhibitory activity as compared with MG-132

Q: What about the “amount of the ecDHFR protein (Western blot)” value ([5]; 24 hours after addition, cycloheximide 50 μg/mL added at 12 hours) of the same molecule?
A: reduced

Q: And the “degradation of the ecDHFR protein when bortezomib is added as well” value ([5]; both TMP-CANDDY_DMT and bortezomib added, compared with TMP-CANDDY_DMT alone)?
A: degradation of the ecDHFR protein was inhibited

Q: What about the “degradation (knockdown) of the ecDHFR protein (shift of GFP/DsRed graph, FACS)” value [3] of the same molecule?
A: degradation of the ecDHFR protein was induced

Q: What about the “concentration dependence of inhibitory activity against β1” value [4] of the same molecule?
A: increased in a concentration dependent manner

Q: And the “proteasome inhibitory activity against β1 compared with the reference proteasome inhibitor” value [4]?
A: significantly lower proteasome inhibitory activity as compared with MG-132

Q: For `CCCC[C@@H](C=O)NC(=O)[C@H](CC(C)C)NC(=O)[C@H](CC(C)C)NC(C)=O` [ALLN, Calpain Inhibitor I] (Ac-Leu-Leu-[Nle]-aldehyde), which “inhibition of β1” value [6] is on record?
A: not inhibited

Q: Which “shift to SA-β-gal (senescence marker) positive (FACS histogram)” value [7] does the source give for `COc1cccc2c1C(=O)c1c(O)c3c(c(O)c1C2=O)C[C@@](O)(C(=O)CO)C[C@@H]3O[C@H]1C[C@H](N)[C@H](O)[C@H](C)O1` [doxorubicin, reference compound] here?
A: a shift to SA-β-gal (senescence marker) positive was observed
